Data on 13 compounds can be found in patent publication US11071731B2, “Allosteric modulators of the mu opioid receptor” (Chiromics, LLC, priority 2017, dated 2021).

pEC50: −log10 of the molar value.

The target in experiment [1] is T1, mu opioid receptor (MOR) (Homo sapiens, UniProt P35372). Briefly: PathHunter β-arrestin recruitment assay, PAM mode with EC20 endomorphin-1. The format is cell-based. Conditions: for pEC50: read-out: β-arr. EC50. Summed up:
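Enzyme fragment complementation read-out: β-gal ED fragment fused to receptor, EA fused to β-arrestin, recruitment restoring β-gal activity detected by chemiluminescence. EC50 and percent maximal response derived for each compound.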

The target in experiment [2] is T1, mu opioid receptor (MOR). Description: Hit Hunter cAMP signaling assay (adenylyl cyclase inhibition), PAM mode with EC20 endomorphin-1. The format is cell-based.
Where [3] appears, read: maximal response for β-arrestin recruitment.
[4] abbreviates: cAMP EC50, adenylyl cyclase inhibition.
[5] abbreviates: maximal response for adenylyl cyclase inhibition.
Where [6] appears, read: maximal response, β-arrestin recruitment.
Where [7] appears, read: maximal response, adenylyl cyclase inhibition.
Where [8] appears, read: adenylyl cyclase inhibition, read-out: cAMP EC50.

T1 sequence (P35372 whole entry, the tested form may be a part): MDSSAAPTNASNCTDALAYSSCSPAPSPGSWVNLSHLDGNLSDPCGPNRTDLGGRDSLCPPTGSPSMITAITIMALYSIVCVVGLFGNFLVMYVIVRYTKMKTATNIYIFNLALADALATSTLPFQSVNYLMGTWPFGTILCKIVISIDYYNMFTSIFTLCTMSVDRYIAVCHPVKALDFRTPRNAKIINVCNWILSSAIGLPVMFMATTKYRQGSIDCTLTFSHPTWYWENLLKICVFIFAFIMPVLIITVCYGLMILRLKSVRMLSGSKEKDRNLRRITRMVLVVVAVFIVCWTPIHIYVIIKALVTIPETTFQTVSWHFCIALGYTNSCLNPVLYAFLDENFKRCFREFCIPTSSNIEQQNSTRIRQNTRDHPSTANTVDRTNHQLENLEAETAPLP

Take `Fc1ccnc(C2CCCCN2c2nc(Cl)ncc2F)c1` (stereo not shown) [compound 412]: the “β-arr Max. Resp.” value at mu opioid receptor (MOR) [1] (setting [3]) is on record as “D (D represents a maximal response of < 40%)”. Also, the pEC50 at mu opioid receptor (MOR) [1] (β-arrestin recruitment) and on mu opioid receptor (MOR) [2] (setting [4]) was above 6.15 each time. At mu opioid receptor (MOR) [2] (setting [5]), the “cAMP Max. Resp.” value is “D (D represents a maximal response of < 40%)”.
Consider `Fc1cnc(Cl)nc1N1CCCCC1c1ccc(C(F)(F)F)nc1` (stereo not shown) [compound 413], for which the “β-arr Max. Resp.” value at mu opioid receptor (MOR) [1] (setting [3]) was “D (D represents a maximal response of < 40%)”. Further, the pEC50 on mu opioid receptor (MOR) [1] (β-arrestin recruitment) and at mu opioid receptor (MOR) [2] (setting [4]) was above 6.15 each time. The “cAMP Max. Resp.” value on mu opioid receptor (MOR) [2] (setting [5]) is “D (D represents a maximal response of < 40%)”.
Turning to `Cc1cccc(C2CCCCN2c2nc(Cl)ncc2F)n1` (stereo not shown) [compound 414], the “β-arr Max. Resp.” value at mu opioid receptor (MOR) [1] (setting [3]) was “D (D represents a maximal response of < 40%)”. The pEC50 at mu opioid receptor (MOR) [1] (β-arrestin recruitment) and at mu opioid receptor (MOR) [2] (setting [4]) was above 6.15 each time. For the same compound, the “cAMP Max. Resp.” value on mu opioid receptor (MOR) [2] (setting [5]) is “D (D represents a maximal response of < 40%)”.
`Fc1ccc(Cl)nc1N1CCCCC1c1ccc(C(F)(F)F)nc1` (stereo not shown) [compound 415]: the “β-arr Max. Resp.” value at mu opioid receptor (MOR) [1] (setting [3]) is given as “D (D represents a maximal response of < 40%)”. In addition, the pEC50 at mu opioid receptor (MOR) [1] (β-arrestin recruitment) and at mu opioid receptor (MOR) [2] (setting [4]) was above 6.15 throughout. Moreover, the “cAMP Max. Resp.” value at mu opioid receptor (MOR) [2] (setting [5]) is “D (D represents a maximal response of < 40%)”.
`Fc1cnc(Cl)nc1N1CCCCC1c1cc(C(F)(F)F)c2[nH]cnc2c1` (stereo not shown) [compound 417]: the “β-arr Max. Resp.” value at mu opioid receptor (MOR) [1] (setting [3]) is on record as “D (D represents a maximal response of < 40%)”. The pEC50 at mu opioid receptor (MOR) [1] (β-arrestin recruitment) and on mu opioid receptor (MOR) [2] (setting [4]) was above 6.15 each time. At mu opioid receptor (MOR) [2] (setting [5]), the “cAMP Max. Resp.” value is recorded as “D (D represents a maximal response of < 40%)”.
Take `Fc1cnc(Cl)nc1N1CCCCC1c1ccc2nccn2c1` (stereo not shown) [compound 421]: the “β-arr Max. Resp.” value at mu opioid receptor (MOR) [1] (setting [6]) is reported as “D (D represents a maximal response of < 40%)”. In addition, the pEC50 on mu opioid receptor (MOR) [1] (β-arrestin recruitment) and on mu opioid receptor (MOR) [2] (setting [4]) was above 6.15 each time. Further, the “cAMP Max. Resp.” value on mu opioid receptor (MOR) [2] (setting [7]) is “D (D represents a maximal response of < 40%)”.
With `CCCC1(F)CCCN(c2nc(Cl)ncc2F)C1c1cccc(C(F)(F)F)c1` (stereo not shown) [compound 424], the “β-arr Max. Resp.” value at mu opioid receptor (MOR) [1] (setting [6]) is on record as “F (F represents a maximal response of > 60%)”. The pEC50 on mu opioid receptor (MOR) [1] (β-arrestin recruitment) and on mu opioid receptor (MOR) [2] (setting [8]) was below 5.68 each time. For the same compound, at mu opioid receptor (MOR) [2] (setting [7]), the “cAMP Max. Resp.” value is recorded as “D (D represents a maximal response of < 40%)”.
In the case of `Fc1ccc(C2CCCCN2c2cccc(Cl)c2)cc1Cl` (stereo not shown) [compound 443], at mu opioid receptor (MOR) [1] (setting [6]), the “β-arr Max. Resp.” value is on record as “F (F represents a maximal response of > 60%)”. Besides, the pEC50 on mu opioid receptor (MOR) [1] (β-arrestin recruitment) and on mu opioid receptor (MOR) [2] (setting [4]) was below 5.68 in each case. Also, the “cAMP Max. Resp.” value at mu opioid receptor (MOR) [2] (setting [7]) is on record as “D (D represents a maximal response of < 40%)”.
As for `Fc1ccc(Cl)cc1CN1C2CCC(C2)C1c1cccc(C(F)(F)F)n1` (stereo not shown) [compound 444], the “β-arr Max. Resp.” value on mu opioid receptor (MOR) [1] (setting [6]) was “F (F represents a maximal response of > 60%)”. Also, the pEC50 on mu opioid receptor (MOR) [1] (β-arrestin recruitment) and at mu opioid receptor (MOR) [2] (setting [4]) was below 5.68 throughout. In addition, the “cAMP Max. Resp.” value on mu opioid receptor (MOR) [2] (setting [7]) is reported as “D (D represents a maximal response of < 40%)”.
As for `OC1Cc2ccccc2C1N1CCCCC1c1ccc(F)c(Cl)c1` (stereo not shown) [compound 447], on mu opioid receptor (MOR) [1] (setting [6]), the “β-arr Max. Resp.” value was “D (D represents a maximal response of < 40%)”. Besides, the pEC50 on mu opioid receptor (MOR) [1] (β-arrestin recruitment) and at mu opioid receptor (MOR) [2] (setting [4]) was below 5.68 throughout. The “cAMP Max. Resp.” value on mu opioid receptor (MOR) [2] (setting [7]) is listed as “D (D represents a maximal response of < 40%)”.
For the compound `CC1CC(c2cccc(C(F)(F)F)c2)N(c2nc(Cl)ncc2F)C1` (stereo not shown) [compound 448], the “β-arr Max. Resp.” value at mu opioid receptor (MOR) [1] (setting [6]) is on record as “F (F represents a maximal response of > 60%)”. Further, the pEC50 on mu opioid receptor (MOR) [1] (β-arrestin recruitment) and on mu opioid receptor (MOR) [2] (setting [8]) was below 5.68 throughout. Besides, at mu opioid receptor (MOR) [2] (setting [7]), the “cAMP Max. Resp.” value is on record as “D (D represents a maximal response of < 40%)”.
With `COc1ccc(C2CCCCN2c2nc(Cl)c(C#N)cc2F)cc1Br` (stereo not shown) [compound 449], the “β-arr Max. Resp.” value on mu opioid receptor (MOR) [1] (setting [6]) is reported as “F (F represents a maximal response of > 60%)”. In addition, the pEC50 on mu opioid receptor (MOR) [1] (β-arrestin recruitment) and at mu opioid receptor (MOR) [2] (setting [4]) was below 5.68 each time. Moreover, the “cAMP Max. Resp.” value on mu opioid receptor (MOR) [2] (setting [7]) is “D (D represents a maximal response of < 40%)”.
`CC1CC(c2cc(F)cc(C(F)(F)F)c2)N(c2nc(Cl)ncc2F)C1` (stereo not shown) [compound 450]: the “β-arr Max. Resp.” value on mu opioid receptor (MOR) [1] (setting [6]) was “F (F represents a maximal response of > 60%)”. The pEC50 on mu opioid receptor (MOR) [1] (β-arrestin recruitment) and at mu opioid receptor (MOR) [2] (setting [8]) was below 5.68 throughout. Besides, at mu opioid receptor (MOR) [2] (setting [7]), the “cAMP Max. Resp.” value is reported as “E (E represents a maximal response of 40-60%)”.

In general, pEC50 refers to the negative decadic logarithm of the EC50, by convention in mol/L.
